Drawing on ChEMBL document CHEMBL5356993, “Novel pyrazolo[3,4-d]pyrimidine derivatives: design, synthesis, anticancer evaluation, VEGFR-2 inhibition, and antiangiogenic activity” (RSC Med Chem, 2023), this text covers Activity for one compound.

Assay [1] has as its system HUVEC. Description: Antiangiogenic activity against HUVEC cells assessed as decrease in healing rate at IC50 incubated for 72 hrs by wound healing assay relative to control. The arrangement: scale not given: the % may be the effect or the level left. The assay is classed as functional, Homo sapiens.
Another assay relates to MDA-MB-468. Nature of the assay: Induction of apoptosis in human MDA-MB-468 cells assessed as increase in caspase-3 level incubated for 2 hrs by ELISA (reference value: 2.109 ng/ml). The assay is classed as functional.
The test system of assay [2] is HUVEC. Nature of the assay: Antiangiogenic activity against HUVEC cells assessed as wound closure at IC50 incubated for 72 hrs by wound healing assay (reference value: 98.518 %). The assay is classed as functional, Homo sapiens.

Consider `CCN(CC)CCNC(=O)c1c(C)[nH]c(/C=C2\C(=O)Nc3ccc(F)cc32)c1C` [SUNITINIB], for which the Activity came to 41% with HUVEC [1], 21.83 ng/mL in the assay on MDA-MB-468 and 57.777% in the assay with HUVEC [2].
